Measured values from patent US9469650B2, “Melampomagnolide B derivatives” (BOARD OF TRUSTEES OF THE UNIVERSITY OF ARKANSAS, priority 2013, dated 2016).

What was measured:
[1] = tested on: HOP-62; assay: panel of 60 human tumor cell lines, growth inhibition (Non-Small Cell Lung Cancer); conditions: HOP-62
[2] = tested on: HOP-92; assay: as above; conditions: HOP-92
[3] = tested on: UACC-257; assay: panel of 60 human tumor cell lines, growth inhibition (Melanoma); conditions: UACC-257
[4] = tested on: SW-620; assay: panel of 60 human tumor cell lines, growth inhibition (Colon Cancer); conditions: SW-620
[5] = tested on: MDA-MB-468; assay: panel of 60 human tumor cell lines, growth inhibition (Breast Cancer); conditions: MDA-MB-468
[6] = tested on: HT29; assay: panel of 60 human tumor cell lines, growth inhibition (Colon Cancer); conditions: HT29
[7] = tested on: OVCAR-3; assay: panel of 60 human tumor cell lines, growth inhibition (Ovarian Cancer); conditions: OVCAR-3
[8] = tested on: CAKI-1; assay: panel of 60 human tumor cell lines, growth inhibition (Renal Cancer); conditions: CAKI-1
[9] = tested on: MOLT-4; assay: panel of 60 human tumor cell lines, growth inhibition (Leukemia); conditions: MOLT-4
[10] = tested on: COLO 205; assay: panel of 60 human tumor cell lines, growth inhibition (Colon Cancer); conditions: COLO 205
[11] = tested on: SF-539; assay: panel of 60 human tumor cell lines, growth inhibition (CNS Cancer); conditions: SF-539
[12] = tested on: PC-3; assay: panel of 60 human tumor cell lines, growth inhibition (Prostate Cancer); conditions: PC-3
[13] = tested on: NCI-H322M; assay: panel of 60 human tumor cell lines, growth inhibition (Non-Small Cell Lung Cancer)
[14] = tested on: SR; assay: panel of 60 human tumor cell lines, growth inhibition (Leukemia)
[15] = tested on: SF-295; assay: panel of 60 human tumor cell lines, growth inhibition (CNS Cancer); conditions: SF-295
[16] = tested on: U251; assay: as above; conditions: U251
[17] = tested on: LOX IMVI; assay: panel of 60 human tumor cell lines, growth inhibition (Melanoma)
[18] = tested on: K-562; assay: panel of 60 human tumor cell lines, growth inhibition (Leukemia); conditions: K-562

C=C1C(=O)O[C@H]2[C@H]1CC/C(COC(=O)NCCN1CCCCC1)=C\CC[C@@]1(C)O[C@@H]21 [JVM 2-13]
GI50 [1]: 17 µM | Percent Growth ([1]; Log10 Concentration −4.0): −77% | Percent Growth ([1]; Log10 Concentration −5.0): 88% | Percent Growth ([1]; Log10 Concentration −6.0): 91% | Percent Growth ([1]; Log10 Concentration −7.0): 95% | Percent Growth ([1]; Log10 Concentration −8.0): 86% | GI50 [2]: 1.58 µM | TGI [2]: 11.2 µM | Percent Growth ([2]; Log10 Concentration −4.0): −83% | Percent Growth ([2]; Log10 Concentration −5.0): 4% | Percent Growth ([2]; Log10 Concentration −6.0): 61% | Percent Growth ([2]; Log10 Concentration −7.0): 76% | Percent Growth ([2]; Log10 Concentration −8.0): 82% | GI50 [3]: 4.99 µM | TGI [3]: 19.2 µM | Percent Growth ([3]; Log10 Concentration −4.0): −86% | Percent Growth ([3]; Log10 Concentration −5.0): 34% | Percent Growth ([3]; Log10 Concentration −6.0): 86% | Percent Growth ([3]; Log10 Concentration −7.0): 92% | Percent Growth ([3]; Log10 Concentration −8.0): 94% | GI50 [4]: 2.72 µM | TGI [4]: 12.3 µM | Percent Growth ([4]; Log10 Concentration −4.0): −74% | Percent Growth ([4]; Log10 Concentration −5.0): 7% | Percent Growth ([4]; Log10 Concentration −6.0): 83% | Percent Growth ([4]; Log10 Concentration −7.0): 96% | Percent Growth ([4]; Log10 Concentration −8.0): 100% | GI50 [5]: 1.41 µM | TGI [5]: 4.47 µM | Percent Growth ([5]; Log10 Concentration −4.0): −68% | Percent Growth ([5]; Log10 Concentration −5.0): −35% | Percent Growth ([5]; Log10 Concentration −6.0): 65% | Percent Growth ([5]; Log10 Concentration −7.0): 95% | Percent Growth ([5]; Log10 Concentration −8.0): 99% | GI50 [6]: 3.76 µM | TGI [6]: 13 µM | Percent Growth ([6]; Log10 Concentration −4.0): −75% | Percent Growth ([6]; Log10 Concentration −5.0): 10% | Percent Growth ([6]; Log10 Concentration −6.0): 104% | Percent Growth ([6]; Log10 Concentration −7.0): 100% | Percent Growth ([6]; Log10 Concentration −8.0): 100% | GI50 [7]: 2.42 µM | TGI [7]: 8.46 µM | Percent Growth ([7]; Log10 Concentration −4.0): −97% | Percent Growth ([7]; Log10 Concentration −5.0): −7% | Percent Growth ([7]; Log10 Concentration −6.0): 85% | Percent Growth ([7]; Log10 Concentration −7.0): 105% | Percent Growth ([7]; Log10 Concentration −8.0): 108% | CC50 ([7]; read-out: LC50): 30.4 µM | GI50 [8]: 3.43 µM | TGI [8]: 15.7 µM | Percent Growth ([8]; Log10 Concentration −4.0): −98% | Percent Growth ([8]; Log10 Concentration −5.0): 24% | Percent Growth ([8]; Log10 Concentration −6.0): 80% | Percent Growth ([8]; Log10 Concentration −7.0): 92% | Percent Growth ([8]; Log10 Concentration −8.0): 89% | TGI [9]: 13.3 µM | Percent Growth ([9]; Log10 Concentration −4.0): −49% | Percent Growth ([9]; Log10 Concentration −5.0): 7% | Percent Growth ([9]; Log10 Concentration −6.0): 95% | Percent Growth ([9]; Log10 Concentration −7.0): 116% | Percent Growth ([9]; Log10 Concentration −8.0): 100% | GI50 [10]: 1.79 µM | TGI [10]: 1.73 µM | Percent Growth ([10]; Log10 Concentration −4.0): −75% | Percent Growth ([10]; Log10 Concentration −5.0): −67% | Percent Growth ([10]; Log10 Concentration −6.0): 90% | Percent Growth ([10]; Log10 Concentration −7.0): 101% | Percent Growth ([10]; Log10 Concentration −8.0): 92% | GI50 [11]: 3.23 µM | TGI [11]: 13.1 µM | Percent Growth ([11]; Log10 Concentration −4.0): −78% | Percent Growth ([11]; Log10 Concentration −5.0): 10% | Percent Growth ([11]; Log10 Concentration −6.0): 91% | Percent Growth ([11]; Log10 Concentration −7.0): 91% | Percent Growth ([11]; Log10 Concentration −8.0): 92% | GI50 [12]: 15.7 µM | TGI [12]: 33.3 µM | Percent Growth ([12]; Log10 Concentration −4.0): −73% | Percent Growth ([12]; Log10 Concentration −5.0): 80% | Percent Growth ([12]; Log10 Concentration −6.0): 94% | Percent Growth ([12]; Log10 Concentration −7.0): 96% | Percent Growth ([12]; Log10 Concentration −8.0): 97% | GI50 [13]: 17.4 µM | Percent Growth ([13]; Log10 Concentration −4.0): −89% | Percent Growth ([13]; Log10 Concentration −5.0): 94% | Percent Growth ([13]; Log10 Concentration −6.0): 106% | Percent Growth ([13]; Log10 Concentration −7.0): 112% | Percent Growth ([13]; Log10 Concentration −8.0): 105% | TGI [14]: 15.4 µM | Percent Growth ([14]; Log10 Concentration −4.0): −47% | Percent Growth ([14]; Log10 Concentration −5.0): 11% | Percent Growth ([14]; Log10 Concentration −6.0): 75% | Percent Growth ([14]; Log10 Concentration −7.0): 95% | Percent Growth ([14]; Log10 Concentration −8.0): 118% | GI50 [15]: 50.8 µM | TGI [15]: >100 µM | Percent Growth ([15]; Log10 Concentration −4.0): 32% | Percent Growth ([15]; Log10 Concentration −5.0): 94% | Percent Growth ([15]; Log10 Concentration −6.0): 96% | Percent Growth ([15]; Log10 Concentration −7.0): 95% | Percent Growth ([15]; Log10 Concentration −8.0): 90% | GI50 [16]: 17.5 µM | TGI [16]: 13.5 µM | Percent Growth ([16]; Log10 Concentration −4.0): −84% | Percent Growth ([16]; Log10 Concentration −5.0): 93% | Percent Growth ([16]; Log10 Concentration −6.0): 94% | Percent Growth ([16]; Log10 Concentration −7.0): 97% | Percent Growth ([16]; Log10 Concentration −8.0): 98% | GI50 [17]: 10.2 µM | TGI [17]: 23.9 µM | Percent Growth ([17]; Log10 Concentration −4.0): −84% | Percent Growth ([17]; Log10 Concentration −5.0): 51% | Percent Growth ([17]; Log10 Concentration −6.0): 94% | Percent Growth ([17]; Log10 Concentration −7.0): 99% | Percent Growth ([17]; Log10 Concentration −8.0): 102% | GI50 [18]: 2.79 µM | TGI [18]: 9.11 µM | Percent Growth ([18]; Log10 Concentration −4.0): −42% | Percent Growth ([18]; Log10 Concentration −5.0): −4% | Percent Growth ([18]; Log10 Concentration −6.0): 93% | Percent Growth ([18]; Log10 Concentration −7.0): 95% | Percent Growth ([18]; Log10 Concentration −8.0): 100%
